Assay results taken from ChEMBL document CHEMBL4346688, “Discovery of novel mutant-combating ALK and ROS1 dual inhibitors bearing imidazolidin-2-one moiety with reasonable PK properties” (Eur J Med Chem, 2019).

tested on: A549; assay: cells; settings: Homo sapiens, A549, 72 h

Compound	IC50 [µM]
COc1cc(N2CCN(CC(=O)O)C2=O)ccc1Nc1ncc(Cl)c(Nc2ccccc2S(=O)(=O)C(C)C)n1	> 5
CCOC(=O)CN1CCN(c2ccc(Nc3ncc(Cl)c(Nc4ccccc4S(=O)(=O)C(C)C)n3)c(OC)c2)C1=O	2.11
COc1cc(N2CCN(CCC#N)C2=O)ccc1Nc1ncc(Cl)c(Nc2ccccc2S(=O)(=O)C(C)C)n1	2.37

Compounds with a lower IC50, results first:

IC50 [µM]	Compound
1.41	COc1cc(N2CCN(C(=O)N(C)C)C2=O)ccc1Nc1ncc(Cl)c(Nc2ccccc2S(=O)(=O)C(C)C)n1
1.15	COCCN1CCN(c2ccc(Nc3ncc(Cl)c(Nc4ccccc4S(=O)(=O)C(C)C)n3)c(OC)c2)C1=O
1.07	COc1cc(N2CCN(CC(=O)N3CCCCC3)C2=O)ccc1Nc1ncc(Cl)c(Nc2ccccc2S(=O)(=O)C(C)C)n1
0.97	COc1cc(N2CCN(CC(=O)N3CCOCC3)C2=O)ccc1Nc1ncc(Cl)c(Nc2ccccc2S(=O)(=O)C(C)C)n1

tested on: KARPAS-299; assay: cells; settings: Homo sapiens, KARPAS-299, 72 h
Description: Cytotoxicity against human KARPAS299 cells incubated for 72 hrs by MTT assay

Compound	IC50 [µM]
COc1cc(N2CCN(CC(=O)O)C2=O)ccc1Nc1ncc(Cl)c(Nc2ccccc2S(=O)(=O)C(C)C)n1	3.27
CCOC(=O)CN1CCN(c2ccc(Nc3ncc(Cl)c(Nc4ccccc4S(=O)(=O)C(C)C)n3)c(OC)c2)C1=O	0.76
COc1cc(N2CCN(CCC#N)C2=O)ccc1Nc1ncc(Cl)c(Nc2ccccc2S(=O)(=O)C(C)C)n1	0.25

The next lines start with the values.

IC50 [µM]	Compound
0.25	COc1cc(N2CCN(C(=O)N(C)C)C2=O)ccc1Nc1ncc(Cl)c(Nc2ccccc2S(=O)(=O)C(C)C)n1
0.57	COCCN1CCN(c2ccc(Nc3ncc(Cl)c(Nc4ccccc4S(=O)(=O)C(C)C)n3)c(OC)c2)C1=O
0.15	COc1cc(N2CCN(CC(=O)N3CCCCC3)C2=O)ccc1Nc1ncc(Cl)c(Nc2ccccc2S(=O)(=O)C(C)C)n1
0.76	COc1cc(N2CCN(CC(=O)N3CCOCC3)C2=O)ccc1Nc1ncc(Cl)c(Nc2ccccc2S(=O)(=O)C(C)C)n1

tested on: A549; assay: cells; settings: Homo sapiens, A549, 72 h; remark: another data set of the same source
Description: Cytotoxicity against human A549 cells incubated for 72 hrs by MTT assay

Compound	IC50 [µM]
COc1cc(N2CCN(CC(=O)O)C2=O)ccc1Nc1ncc(Cl)c(Nc2ccccc2S(=O)(=O)C(C)C)n1	> 5
CCOC(=O)CN1CCN(c2ccc(Nc3ncc(Cl)c(Nc4ccccc4S(=O)(=O)C(C)C)n3)c(OC)c2)C1=O	> 5
COc1cc(N2CCN(CCC#N)C2=O)ccc1Nc1ncc(Cl)c(Nc2ccccc2S(=O)(=O)C(C)C)n1	> 5

Second part, the compound after the results:

IC50 [µM]	Compound
2.59	COc1cc(N2CCN(C(=O)N(C)C)C2=O)ccc1Nc1ncc(Cl)c(Nc2ccccc2S(=O)(=O)C(C)C)n1
3.11	COCCN1CCN(c2ccc(Nc3ncc(Cl)c(Nc4ccccc4S(=O)(=O)C(C)C)n3)c(OC)c2)C1=O
> 5	COc1cc(N2CCN(CC(=O)N3CCCCC3)C2=O)ccc1Nc1ncc(Cl)c(Nc2ccccc2S(=O)(=O)C(C)C)n1
> 5	COc1cc(N2CCN(CC(=O)N3CCOCC3)C2=O)ccc1Nc1ncc(Cl)c(Nc2ccccc2S(=O)(=O)C(C)C)n1

tested on: HCC78; assay: cells; settings: Homo sapiens, HCC78, 72 h
Description: Cytotoxicity against human HCC78 cells incubated for 72 hrs by MTT assay

Compound	IC50 [µM]
COc1cc(N2CCN(CC(=O)O)C2=O)ccc1Nc1ncc(Cl)c(Nc2ccccc2S(=O)(=O)C(C)C)n1	2.51
CCOC(=O)CN1CCN(c2ccc(Nc3ncc(Cl)c(Nc4ccccc4S(=O)(=O)C(C)C)n3)c(OC)c2)C1=O	1.57
COc1cc(N2CCN(CCC#N)C2=O)ccc1Nc1ncc(Cl)c(Nc2ccccc2S(=O)(=O)C(C)C)n1	0.47

Next, values leading:

IC50 [µM]	Compound
0.67	COc1cc(N2CCN(C(=O)N(C)C)C2=O)ccc1Nc1ncc(Cl)c(Nc2ccccc2S(=O)(=O)C(C)C)n1
0.41	COCCN1CCN(c2ccc(Nc3ncc(Cl)c(Nc4ccccc4S(=O)(=O)C(C)C)n3)c(OC)c2)C1=O
0.49	COc1cc(N2CCN(CC(=O)N3CCCCC3)C2=O)ccc1Nc1ncc(Cl)c(Nc2ccccc2S(=O)(=O)C(C)C)n1
0.21	COc1cc(N2CCN(CC(=O)N3CCOCC3)C2=O)ccc1Nc1ncc(Cl)c(Nc2ccccc2S(=O)(=O)C(C)C)n1

tested on: BaF3; assay: cells; settings: Mus musculus, BaF3, 72 h

Compound	IC50 [µM]
COc1cc(N2CCN(CC(=O)O)C2=O)ccc1Nc1ncc(Cl)c(Nc2ccccc2S(=O)(=O)C(C)C)n1	> 5
CCOC(=O)CN1CCN(c2ccc(Nc3ncc(Cl)c(Nc4ccccc4S(=O)(=O)C(C)C)n3)c(OC)c2)C1=O	3.45
COc1cc(N2CCN(CCC#N)C2=O)ccc1Nc1ncc(Cl)c(Nc2ccccc2S(=O)(=O)C(C)C)n1	2.78

Next, values leading:

IC50 [µM]	Compound
> 5	COc1cc(N2CCN(C(=O)N(C)C)C2=O)ccc1Nc1ncc(Cl)c(Nc2ccccc2S(=O)(=O)C(C)C)n1
3.51	COCCN1CCN(c2ccc(Nc3ncc(Cl)c(Nc4ccccc4S(=O)(=O)C(C)C)n3)c(OC)c2)C1=O
2.97	COc1cc(N2CCN(CC(=O)N3CCCCC3)C2=O)ccc1Nc1ncc(Cl)c(Nc2ccccc2S(=O)(=O)C(C)C)n1
2.06	COc1cc(N2CCN(CC(=O)N3CCOCC3)C2=O)ccc1Nc1ncc(Cl)c(Nc2ccccc2S(=O)(=O)C(C)C)n1

tested on: BaF3; assay: cells; settings: Mus musculus, BaF3, 72 h; remark: another data set of the same source
Description: Cytotoxicity against mouse BA/F3 cells incubated for 72 hrs by MTT assay

Compound	IC50 [µM]
COc1cc(N2CCN(CC(=O)O)C2=O)ccc1Nc1ncc(Cl)c(Nc2ccccc2S(=O)(=O)C(C)C)n1	> 5
CCOC(=O)CN1CCN(c2ccc(Nc3ncc(Cl)c(Nc4ccccc4S(=O)(=O)C(C)C)n3)c(OC)c2)C1=O	> 5
COc1cc(N2CCN(CCC#N)C2=O)ccc1Nc1ncc(Cl)c(Nc2ccccc2S(=O)(=O)C(C)C)n1	> 5

The next lines start with the values.

IC50 [µM]	Compound
> 5	COc1cc(N2CCN(C(=O)N(C)C)C2=O)ccc1Nc1ncc(Cl)c(Nc2ccccc2S(=O)(=O)C(C)C)n1
> 5	COCCN1CCN(c2ccc(Nc3ncc(Cl)c(Nc4ccccc4S(=O)(=O)C(C)C)n3)c(OC)c2)C1=O
> 5	COc1cc(N2CCN(CC(=O)N3CCCCC3)C2=O)ccc1Nc1ncc(Cl)c(Nc2ccccc2S(=O)(=O)C(C)C)n1
> 5	COc1cc(N2CCN(CC(=O)N3CCOCC3)C2=O)ccc1Nc1ncc(Cl)c(Nc2ccccc2S(=O)(=O)C(C)C)n1

tested on: NCI-H2228; assay: cells; settings: Homo sapiens, NCI-H2228, 72 h
Description: Cytotoxicity against human NCI-H2228 cells incubated for 72 hrs by MTT assay

Compound	IC50 [µM]
COc1cc(N2CCN(CC(=O)O)C2=O)ccc1Nc1ncc(Cl)c(Nc2ccccc2S(=O)(=O)C(C)C)n1	1.71
CCOC(=O)CN1CCN(c2ccc(Nc3ncc(Cl)c(Nc4ccccc4S(=O)(=O)C(C)C)n3)c(OC)c2)C1=O	1.53
COc1cc(N2CCN(CCC#N)C2=O)ccc1Nc1ncc(Cl)c(Nc2ccccc2S(=O)(=O)C(C)C)n1	1.13

Continued, values first:

IC50 [µM]	Compound
0.61	COc1cc(N2CCN(C(=O)N(C)C)C2=O)ccc1Nc1ncc(Cl)c(Nc2ccccc2S(=O)(=O)C(C)C)n1
0.87	COCCN1CCN(c2ccc(Nc3ncc(Cl)c(Nc4ccccc4S(=O)(=O)C(C)C)n3)c(OC)c2)C1=O
0.53	COc1cc(N2CCN(CC(=O)N3CCCCC3)C2=O)ccc1Nc1ncc(Cl)c(Nc2ccccc2S(=O)(=O)C(C)C)n1
0.57	COc1cc(N2CCN(CC(=O)N3CCOCC3)C2=O)ccc1Nc1ncc(Cl)c(Nc2ccccc2S(=O)(=O)C(C)C)n1
